Results on 4 compounds are retold here after ChEMBL document CHEMBL1201862, “PubChem BioAssay data set” (2004).

What all share (assay): growth of human tumour cells (NCI), 48 h
Experiment [1] concerns ACHN.
Experiment [2] concerns CAKI-1.
Experiment [3] deals with HCT-116.
Experiment [4] relates to HCT-15.
The test system of experiment [5] is IGROV-1.
Experiment [6] relates to KM12.
Experiment [7] deals with LOX IMVI.
Experiment [8] relates to MDA-N.
The test system of experiment [9] is MOLT-4.
Experiment [10] has as its system NCI-H23.
Experiment [11] concerns OVCAR-8.
The test system of experiment [12] is RXF 393.
The subject of experiment [13] is SF-268.
Experiment [14] relates to SK-MEL-28.
Experiment [15] deals with SK-MEL-5.
The test system of experiment [16] is SNB-19.
Experiment [17] has as its system SNB-75.
In experiment [18] the test system is SW-620.
Experiment [19] has as its system T47D.
The test system of experiment [20] is UO-31.

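Results reflect a 48-hour exposure of cells in 96-well plates to compound at five concentrations. Abbreviation: GI50, concentration required for 50% inhibition of growth.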 Calls of active or inactive are those of the source. No stated cut-off is given here; in the data, active = GI50 up to about 1.1 µM and inactive = higher.

On to `CN(O)C(=O)CCC(NC(=O)CCC(N)C(=O)O)C(=O)NCC(=O)O` (stereo not given), for which the GI50 in experiment [1] is > 100 µM (inactive); in experiment [2] it was > 100 µM (inactive); in [3] it was > 100 µM (inactive); in experiment [4], more than 100 µM; in experiment [5], > 100 µM (inactive); in experiment [6], > 100 µM (inactive). The GI50 in experiment [7], in [8], in experiment [9], in experiment [10], in [11] and in experiment [12] was > 100 µM (inactive) in each case. The GI50 in experiment [13], in experiment [14], in [15], in [16], in [17] and in experiment [18] was > 100 µM (inactive) in each case. Further, the GI50 in experiment [19] and in experiment [20] was > 100 µM (inactive) throughout.
Take `O=C1/C(=C/c2ccc(O)cc2)CCc2ccccc21`: the GI50 in experiment [1] was 21.1 µM (inactive); in experiment [2] it was 31.3 µM (inactive); in [3], 16.1 µM (inactive); in experiment [4], 18.8 µM; in experiment [5], 26.9 µM (inactive); in experiment [6] it was 17.2 µM (inactive). The GI50 was 20 µM (inactive) in [7]; 22.1 µM (inactive) in experiment [8]; 2.82 µM (inactive) in [9]; 23.4 µM (inactive) in [10]; 27.2 µM (inactive) in experiment [11]; 17.1 µM (inactive) in experiment [12]. Also, the GI50 was 16.1 µM (inactive) in [13]; 19.2 µM (inactive) in [14]; 16.9 µM (inactive) in experiment [15]; 22.4 µM (inactive) in [16]; 26.9 µM (inactive) in experiment [17]; 19.4 µM (inactive) in experiment [18]. For the same compound, the GI50 in experiment [19] is 50.6 µM (inactive); in experiment [20], 19.6 µM (inactive).
With `O=C1C(Cl)C2(CC(/C=C/c3ccccc3Cl)=NN2c2cccc(S(=O)(=O)O)c2)N1c1nc2ccccc2s1` (stereo not given), the GI50 in [1] is 42.7 µM (inactive); in experiment [2], 17.2 µM (inactive); in [3], 49.7 µM (inactive); in experiment [4], 15.8 µM; in [5] it was 26.9 µM (inactive); in experiment [6], 14.7 µM (inactive). Further, the GI50 is 12.4 µM (inactive) in experiment [7]; 46 µM (inactive) in experiment [8]; 10.3 µM (inactive) in [9]; 33.6 µM (inactive) in experiment [10]; 26.5 µM (inactive) in [11]; 42.8 µM (inactive) in [12]. The GI50 in [13] was 66.4 µM (inactive); in experiment [14], > 100 µM (inactive); in [15], 21.4 µM (inactive); in experiment [16], > 100 µM (inactive); in experiment [17], 43.5 µM (inactive); in experiment [18] it was 19.4 µM (inactive). Besides, the GI50 in experiment [19] is 11.3 µM (inactive); in experiment [20] it was 4.82 µM (inactive).
As for `CC(C)(C)OC(=O)C1=C(N)N(Cc2ccccc2)C2(C)C=CC(=O)C=C12` (stereo not given), the GI50 in [1] is 2.47 µM (inactive); in experiment [2] it was 1.83 µM (inactive); in [3], 3.27 µM (inactive); in [4] it was 3.21 µM; in experiment [5], 5.31 µM (inactive); in experiment [6], 6.49 µM (inactive). The GI50 was 2.34 µM (inactive) in experiment [7]; 4.79 µM (inactive) in experiment [8]; 2.48 µM (inactive) in experiment [9]; 9.29 µM (inactive) in experiment [10]; 2.45 µM (inactive) in [11]; 2.44 µM (inactive) in experiment [12]. The GI50 in [13] is 2.18 µM (inactive); in experiment [14], 7.41 µM (inactive); in experiment [15] it was 4.31 µM (inactive); in [16], 16.1 µM (inactive); in [17], 13 µM (inactive); in experiment [18] it was 2.37 µM (inactive). Further, the GI50 in experiment [19] was 3.1 µM (inactive); in [20], 3.52 µM (inactive).
